Measurements published in US9689244B2, “Process for water wetting oil-wet surfaces” (BASF SE, priority 2012, dated 2017).

Tests used:
Assay type in all cases: physicochemical
[1] = Interfacial tension between aqueous solution and oil phase (spinning drop tensiometer)
Description: The interfacial tension between aqueous solutions of tested compounds and an oil phase were measured with a spinning drop tensiometer (DataPhysics). As the composition of crude oils may vary decane, dodecane, and hexadecane were used as model oils in order to study the range of application of the tested compounds.

[2] = Surface tension (DuNouy ring method) and critical micelle formation concentration
Description: The surface tension was measured as a function of the concentration of the surface active components using the DuNouy ring method (according to Din 53914). The critical micelle formation concentration (cmc) was derived in the usual manner from the measurement graph.
The salts used were NaCl and CaCl2 at a weight ratio of 9:1 NaCl/CaCl2.

[3] = Modification of the wettability: contact angle of oil on oil wet polyethylene platelets; conditions: for Contact angle: dodecane
Description: Polyethylene platelets (3 cm×2 cm) were use as hydrophobic model surfaces for oil wet rocks. As a first step, 5 μl decane or 5 μl dodecane were applied to the polyethylene platelets. The hydrophobic liquids spread on the hydrophobic surface. The contact angle between the oil and the polyethylene surface was measured using a usual contact angle measuring device (DataPhysics) and consequently a value of 0° was obtained. The oil wet platelets were submerged into an aqueous solution of 1 g/l by weight of the compound to be tested. […] The contact angle between oil and the polyethylene surface was measured as function of time. Furthermore, it was inspected visually whether oil droplets became detached from the surface.

[4] = Cloud point of conventional surfactants in saline water; conditions: 1% in water having a salinity of 50.000 ppm NaCl
Description: For comparative purposes, two conventional surfactants were tested at a concentration of 1% in water having a salinity of 50.000 ppm NaCl and in the usual manner their cloud point was determined.

[5] = 25 °C, brine NaCl/CaCl2 (9:1) 10,000 ppm
[6] = 25 °C, brine NaCl/CaCl2 (9:1) 100,000 ppm
[7] = 60 °C, brine NaCl/CaCl2 (9:1) 10,000 ppm
[8] = 60 °C, brine NaCl/CaCl2 (9:1) 100,000 ppm

Substance	IFT after 60 min, 1 g/l of sample in aqueous phase, decane ([1]; 25 °C, brine 10,000 ppm) [mN/m]	IFT after 60 min, 1 g/l of sample in aqueous phase, decane ([1]; 25 °C, brine 100,000 ppm) [mN/m]	IFT after 60 min, 1 g/l of sample in aqueous phase, decane ([1]; 60 °C, brine 10,000 ppm) [mN/m]	IFT after 60 min, 1 g/l of sample in aqueous phase, decane ([1]; 60 °C, brine 100,000 ppm) [mN/m]	IFT after 60 min, 1 g/l of sample in aqueous phase, docecane ([1]; 25 °C, brine 10,000 ppm) [mN/m]	IFT after 60 min, 1 g/l of sample in aqueous phase, docecane ([1]; 60 °C, brine 10,000 ppm) [mN/m]	IFT after 60 min, 1 g/l of sample in aqueous phase, hexadecane ([1]; 25 °C, brine 10,000 ppm) [mN/m]	IFT after 60 min, 1 g/l of sample in aqueous phase, hexadecane ([1]; 60 °C, brine 10,000 ppm) [mN/m]	ST At 1 g/l ([2]; 25 °C, brine 10,000 ppm) [mN/m]	ST At 1 g/l ([2]; 25 °C, brine 100,000 ppm) [mN/m]	cmc [2, 5] [g/L]	cmc [2, 6] [g/L]	ST At 1 g/l ([2]; 60 °C, brine 10,000 ppm) [mN/m]	ST At 1 g/l ([2]; 60 °C, brine 100,000 ppm) [mN/m]	cmc [2, 7] [g/L]	cmc [2, 8] [g/L]	Cloud point [4] [°C]	other results
Saccharose* 20 EO monoester with C16/C18 fatty acid [Compound S1]	3.9	2.4	0.45	1.2	2.9	0.19	4.0	0.55	33.7	34.5	0.03	0.02	29.6	29.1	0.03	0.02		Interfacial tension (IFT) between water and hydrocarbons of different chain lengths, change on addition of wettability modifier ([1]; hydrocarbons of different chain lengths): decreases significantly; Contact angle ([3]; 25° C., brine 10,000 ppm + 1 g/l S1, time 0 min): 6 °; Contact angle ([3]; 25° C., brine 10,000 ppm + 1 g/l S1, time 30 min): 13 °; Contact angle ([3]; 25° C., brine 10,000 ppm + 1 g/l S1, time 45 min): 14 °; Contact angle ([3]; 25° C., brine 10,000 ppm + 1 g/l S1, time 60 min): 17 °; Contact angle ([3]; 25° C., brine 10,000 ppm + 1 g/l S1, time 90 min): 22 °; Contact angle ([3]; 25° C., brine 10,000 ppm + 1 g/l S1, time 180 min): beginning; Contact angle ([3]; 25° C., brine 100,000 ppm + 1 g/l S1, time 0 min): 7 °; Contact angle ([3]; 25° C., brine 100,000 ppm + 1 g/l S1, time 30 min): 26 °; Contact angle ([3]; 25° C., brine 100,000 ppm + 1 g/l S1, time 45 min): 74 °; Contact angle ([3]; 25° C., brine 100,000 ppm + 1 g/l S1, time 60 min): oil already detached; Time of contact after which oil is detached from the surface ([3]; 60° C.): 2 min; Contact angle ([3]; 60° C., brine 10,000 ppm + 1 g/l S1, time 60 min): beginning; Contact angle ([3]; 60° C., brine 100,000 ppm + 1 g/l S1, time 0 min): oil already
C16/18-alcohol+80 EO																	87	
Saccharose * 40 EO diester with C12/C18 fatty acid [Compound S2]	2.3	2.1	0.46	0.36	2.0	0.34	2.2	0.40	34.6	34.6	0.03	0.03	27.7	28.3	0.04	0.02		
C13-alcohol+20 EO																	86	
